target: FASN enzyme (Homo sapiens, UniProt P49327); assay: Enzymatic Assay for FASN Inhibitors; assay type: biochemical; settings: not given
In short: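 40 nM FASN preincubated with compound 60 min at 25° C in HEPES pH 7.3 buffer with 0.04% Triton X-100. Then 20 μM acetyl-CoA, 60 μM malonyl-CoA and 100 μM NADPH added for 90 min, quenched with CPM thiol probe; fluorescence 360/530 nm, IC50 by four-parameter fit.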

Chain of FASN enzyme (P49327 whole entry): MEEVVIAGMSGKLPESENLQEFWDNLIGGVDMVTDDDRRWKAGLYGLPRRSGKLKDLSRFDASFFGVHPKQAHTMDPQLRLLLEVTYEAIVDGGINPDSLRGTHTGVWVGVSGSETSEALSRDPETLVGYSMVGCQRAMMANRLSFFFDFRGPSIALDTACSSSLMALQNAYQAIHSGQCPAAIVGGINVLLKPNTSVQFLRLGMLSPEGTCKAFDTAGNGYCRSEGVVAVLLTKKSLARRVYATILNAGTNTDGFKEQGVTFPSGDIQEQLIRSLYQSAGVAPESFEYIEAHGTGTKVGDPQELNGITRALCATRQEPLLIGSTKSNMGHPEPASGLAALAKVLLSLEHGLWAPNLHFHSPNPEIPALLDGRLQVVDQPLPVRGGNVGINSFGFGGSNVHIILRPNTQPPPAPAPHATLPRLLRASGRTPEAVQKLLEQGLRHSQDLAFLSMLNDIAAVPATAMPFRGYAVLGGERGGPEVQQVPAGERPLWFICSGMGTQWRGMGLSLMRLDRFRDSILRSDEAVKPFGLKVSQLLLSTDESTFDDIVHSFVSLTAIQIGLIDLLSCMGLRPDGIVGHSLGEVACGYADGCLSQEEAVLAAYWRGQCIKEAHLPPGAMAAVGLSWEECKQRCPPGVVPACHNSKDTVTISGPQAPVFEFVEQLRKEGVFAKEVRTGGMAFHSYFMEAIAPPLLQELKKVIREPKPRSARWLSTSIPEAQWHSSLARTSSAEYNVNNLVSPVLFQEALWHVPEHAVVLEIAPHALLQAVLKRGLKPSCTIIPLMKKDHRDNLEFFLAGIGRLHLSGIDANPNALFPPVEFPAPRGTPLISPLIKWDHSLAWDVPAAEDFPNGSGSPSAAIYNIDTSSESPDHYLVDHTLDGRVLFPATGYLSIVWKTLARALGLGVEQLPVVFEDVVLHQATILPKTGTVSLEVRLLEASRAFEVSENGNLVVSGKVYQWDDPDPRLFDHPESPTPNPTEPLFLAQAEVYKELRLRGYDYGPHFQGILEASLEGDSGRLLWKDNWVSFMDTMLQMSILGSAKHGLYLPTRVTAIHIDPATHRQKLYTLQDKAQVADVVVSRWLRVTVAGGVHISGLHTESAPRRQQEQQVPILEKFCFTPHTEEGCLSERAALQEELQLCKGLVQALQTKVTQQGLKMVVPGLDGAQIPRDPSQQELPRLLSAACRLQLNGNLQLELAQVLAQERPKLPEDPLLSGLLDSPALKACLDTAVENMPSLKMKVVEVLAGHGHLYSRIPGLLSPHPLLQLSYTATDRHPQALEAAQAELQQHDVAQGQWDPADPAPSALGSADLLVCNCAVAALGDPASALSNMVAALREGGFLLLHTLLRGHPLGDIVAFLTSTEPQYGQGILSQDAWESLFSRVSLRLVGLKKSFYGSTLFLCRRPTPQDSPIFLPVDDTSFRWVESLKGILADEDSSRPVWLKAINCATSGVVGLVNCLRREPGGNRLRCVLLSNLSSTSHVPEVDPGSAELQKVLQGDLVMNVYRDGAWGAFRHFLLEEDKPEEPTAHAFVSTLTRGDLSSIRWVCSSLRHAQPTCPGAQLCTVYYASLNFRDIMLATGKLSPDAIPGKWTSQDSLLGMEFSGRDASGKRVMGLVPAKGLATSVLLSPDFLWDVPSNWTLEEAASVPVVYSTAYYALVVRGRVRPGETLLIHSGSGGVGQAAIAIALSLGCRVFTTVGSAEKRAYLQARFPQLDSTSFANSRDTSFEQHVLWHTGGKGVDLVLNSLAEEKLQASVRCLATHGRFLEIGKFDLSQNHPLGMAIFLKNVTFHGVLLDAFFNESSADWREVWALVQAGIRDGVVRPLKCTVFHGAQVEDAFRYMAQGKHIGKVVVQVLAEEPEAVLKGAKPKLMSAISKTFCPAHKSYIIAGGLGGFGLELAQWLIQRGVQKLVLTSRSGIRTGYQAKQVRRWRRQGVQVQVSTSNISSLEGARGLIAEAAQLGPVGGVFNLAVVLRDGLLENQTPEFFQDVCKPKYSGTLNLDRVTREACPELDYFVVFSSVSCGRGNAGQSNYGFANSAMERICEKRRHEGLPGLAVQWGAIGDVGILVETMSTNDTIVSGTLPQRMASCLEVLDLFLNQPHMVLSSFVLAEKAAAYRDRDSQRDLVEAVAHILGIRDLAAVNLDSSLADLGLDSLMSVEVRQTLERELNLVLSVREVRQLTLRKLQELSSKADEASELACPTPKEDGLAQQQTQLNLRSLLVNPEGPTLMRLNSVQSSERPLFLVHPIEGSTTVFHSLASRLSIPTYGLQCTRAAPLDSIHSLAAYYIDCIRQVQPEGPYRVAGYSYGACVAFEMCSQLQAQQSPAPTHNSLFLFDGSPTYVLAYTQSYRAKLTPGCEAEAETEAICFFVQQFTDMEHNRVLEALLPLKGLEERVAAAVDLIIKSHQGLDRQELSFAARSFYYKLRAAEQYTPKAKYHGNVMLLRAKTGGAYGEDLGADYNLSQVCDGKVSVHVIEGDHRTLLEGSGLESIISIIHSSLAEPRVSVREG

Row | IC50 [nM] | SMILES
1 | < 500 | Cc1nn(C)c2ccc(-c3ccc(C(=O)N4CCN(C(=O)C5(O)CC5)[C@@H](C)C4)cc3)cc12 [1-[(2S)-4-[4-(1,3-dimethyl-1H-indazol-5-yl)benzoyl]-2-methylpiperazine-1-carbonyl]cyclopropan-1-ol]
2 | < 500 | O=C(c1ccc(-c2nc3ccc(Cl)cc3o2)cc1Cl)N1CCN(C(=O)C2(O)CC2)CC1 [1-{4-[2-chloro-4-(6-chloro-1,3-benzoxazol-2-yl)benzoyl]piperazine-1-carbonyl}cyclopropan-1-ol]
3 | < 500 | O=C(c1ccc(-c2nc3ccc(F)cc3o2)c(F)c1)N1CCN(C(=O)C2(O)CC2)CC1 [1-{4-[3-fluoro-4-(6-fluoro-1,3-benzoxazol-2-yl)benzoyl]piperazine-1-carbonyl}cyclopropan-1-ol]
4 | < 500 | O=C(c1ccc(-c2ccc(Cl)c(F)c2)cc1)N1CCN(C(=O)C2(O)CC2)CC1 [1-[(4-{[4-(4-chloro-3-fluorophenyl)phenyl]carbonyl}piperazin-1-yl)carbonyl]cyclopropan-1-ol]
5 | < 500 | Nc1nc(-c2cccc(-c3ccc(C(=O)N4CCN(C(=O)C5(O)CC5)CC4)cc3)c2)n[nH]1 [1-(4-{4-[3-(5-amino-1H-1,2,4-triazol-3-yl)phenyl]benzoyl}piperazine-1-carbonyl)cyclopropan-1-ol]
6 | < 500 | N#Cc1ccc2cc(C3CCN(C(=O)N4CCN(C(=O)C5(O)CC5)CC4)CC3)ccc2c1 [6-{1-[4-(1-hydroxycyclopropanecarbonyl)piperazine-1-carbonyl]piperidin-4-yl}naphthalene-2-carbonitrile]
7 | < 500 | Cc1n[nH]c2cc(-c3ccc(C(=O)N4CCN(C(=O)C5(O)CC5)CC4)c(F)c3)ccc12
8 | < 500 | N#CC1(c2cccc(-c3ccc(C(=O)N4CCN(C(=O)C5(O)CC5)CC4)cc3)c2)CC1
9 | < 500 | Cn1ncc2ccc(-c3ccc(C(=O)N4CCN(C(=O)C5(O)CC5)CC4)cc3Cl)cc21 [1-{4-[3-chloro-4-(1-methyl-1H-indazol-6-yl)benzoyl]piperazine-1-carbonyl}cyclopropan-1-ol]
10 | < 500 | CC1(C)CN(C(=O)C2(O)CC2)CCN1C(=O)c1ccc(-c2nc3ccc(F)cc3o2)cc1
11 | < 500 | O=C(Nc1cccc(-c2ccc(C(=O)N3CCN(C(=O)C4(O)CC4)CC3)cc2)c1)C1CC1
12 | < 500 | Cc1n[nH]c2cccc(-c3ccc(C(=O)N4CCN(C(=O)C5(O)CC5)CC4)cc3)c12 [1-{4-[4-(3-methyl-1H-indazol-4-yl)benzoyl]piperazine-1-carbonyl}cyclopropan-1-ol]
13 | < 500 | COc1ccc2nc(-c3ccc(C(=O)N4CCN(C(=O)C5(O)CC5)CC4)cc3)oc2c1 [1-{4-[4-(6-methoxy-1,3-benzoxazol-2-yl)benzoyl]piperazine-1-carbonyl}cyclopropan-1-ol]
14 | < 500 | C[C@@H]1CN(C(=O)C2(O)CC2)CCN1C(=O)c1ccc(-c2nc3ccc(F)cc3o2)cc1 [1-[(3R)-4-[4-(6-fluoro-1,3-benzoxazol-2-yl)benzoyl]-3-methylpiperazine-1-carbonyl]cyclopropan-1-ol]
15 | < 500 | O=C(c1ccc(-c2ccc3c(c2)ncn3CCO)cc1)N1CCN(C(=O)C2(O)CC2)CC1 [1-(4-{4-[1-(2-hydroxyethyl)-1H-1,3-benzodiazol-5-yl]benzoyl}piperazine-1-carbonyl)cyclopropan-1-ol]
16 | < 500 | Cn1nc2ccc(-c3ccc(C(=O)N4CCN(C(=O)C5(O)CC5)CC4)cc3)cc2n1

Row | IC50 [nM] | SMILES
17 | < 500 | C[C@@H]1CN(C(=O)C2(O)CC2)CCN1C(=O)c1ccc(-c2ccc3c(c2)ncn3C)cc1 [1-[(3R)-3-methyl-4-[4-(1-methyl-1H-1,3-benzodiazol-5-yl)benzoyl]piperazine-1-carbonyl]cyclopropan-1-ol]
18 | < 500 | O=C(c1ccc(-c2nc3ccc(Cl)cc3o2)c(Cl)c1)N1CCN(C(=O)C2(O)CC2)CC1 [1-{4-[3-chloro-4-(6-chloro-1,3-benzoxazol-2-yl)benzoyl]piperazine-1-carbonyl}cyclopropan-1-ol]
19 | < 500 | O=C(c1ccc(-c2ccc3c(cnn3C3CC3)c2)cc1)N1CCN(C(=O)C2(O)CC2)CC1 [1-{4-[4-(1-cyclopropyl-1H-indazol-5-yl)benzoyl]piperazine-1-carbonyl}cyclopropan-1-ol]
20 | < 500 | Cc1c2ccccc2nn1-c1ccc(C(=O)N2CCN(C(=O)C3(O)CC3)CC2)cc1 [1-{4-[4-(3-methyl-2H-indazol-2-yl)benzoyl]piperazine-1-carbonyl}cyclopropan-1-ol]
21 | < 500 | O=C(c1ccc(-c2nc3ccccn3c2Cl)c(F)c1)N1CCN(C(=O)C2(O)CC2)CC1 [1-[4-(4-{3-chloroimidazo[1,2-a]pyridin-2-yl}-3-fluorobenzoyl)piperazine-1-carbonyl]cyclopropan-1-ol]
22 | < 500 | CC1Cc2ccccc2N1c1ccc(C(=O)N2CCN(C(=O)C3(O)CC3)CC2)cc1 (stereo not drawn) [1-{4-[4-(2-methyl-2,3-dihydro-1H-indol-1-yl)benzoyl]piperazine-1-carbonyl}cyclopropan-1-ol]
23 | < 500 | Cc1n[nH]c2c(-c3ccc(C(=O)N4CCN(C(=O)C5(N)CC5)CC4)cc3)cccc12
24 | < 500 | Cn1cnc2cc(-c3ccc(C(=O)N4CCN(C(=O)C5(N)CC5)CC4)cc3)ccc21 [1-{4-[4-(1-methyl-1H-1,3-benzodiazol-5-yl)benzoyl]piperazine-1-carbonyl}cyclopropan-1-amine]
25 | < 500 | Cn1cnc2cc(-c3ccc(C(=O)N4CCN(C(=O)C5(O)CC5)CC4)cc3F)ccc21 [1-{4-[3-fluoro-4-(1-methyl-1H-1,3-benzodiazol-5-yl)benzoyl]piperazine-1-carbonyl}cyclopropan-1-ol]
26 | < 500 | C[C@@H]1CN(C(=O)c2ccc(-c3nc4ccc(F)cc4o3)cc2)CCN1C(=O)C1(O)CC1 [1-[(2R)-4-[4-(6-fluoro-1,3-benzoxazol-2-yl)benzoyl]-2-methylpiperazine-1-carbonyl]cyclopropan-1-ol]
27 | < 500 | O=C(c1ccc(-c2ccc3nn(C4CC4)cc3c2)cc1)N1CCN(C(=O)C2(O)CC2)CC1 [1-{4-[4-(2-cyclopropyl-2H-indazol-5-yl)benzoyl]piperazine-1-carbonyl}cyclopropan-1-ol]
28 | < 500 | O=C(c1ccc(-n2ccc3ccccc32)cc1)N1CCN(C(=O)C2(O)CC2)CC1 [1-{4-[4-(1H-indol-1-yl)benzoyl]piperazine-1-carbonyl}cyclopropan-1-ol]
29 | < 500 | Cn1cnc2cc(-c3ccc(C(=O)N4CCN(C(=O)C5(O)CCC5)CC4)cc3)ccc21 [1-{4-[4-(1-methyl-1H-1,3-benzodiazol-5-yl)benzoyl]piperazine-1-carbonyl}cyclobutan-1-ol]
30 | < 500 | Cc1n[nH]c2c(-c3ccc(C(=O)N4CCN(C(=O)C5(N)CC5)CC4)c(F)c3)cccc12 [1-{4-[2-fluoro-4-(3-methyl-1H-indazol-7-yl)benzoyl]piperazine-1-carbonyl}cyclopropan-1-amine]
31 | < 500 | O=C(NC1CC1)c1cccc(-c2ccc(C(=O)N3CCN(C(=O)C4(O)CC4)CC3)cc2)c1 [N-cyclopropyl-3-[4-({4-[(1-hydroxycyclopropyl)carbonyl]piperazin-1-yl}carbonyl)phenyl]benzamide]
32 | < 500 | Cn1cc2ccc(-c3cc(F)c(C(=O)N4CCN(C(=O)C5(O)CC5)CC4)c(F)c3)cc2n1 [1-{4-[2,6-difluoro-4-(2-methyl-2H-indazol-6-yl)benzoyl]piperazine-1-carbonyl}cyclopropan-1-ol]

same assay, conditions: FASN enzymatic assay; Table 2-2

Row | IC50 [nM] | SMILES
33 | 500 to 5000 | O=C(c1ccc(-c2ccc3ncccc3c2)cc1C(F)(F)F)N1CCN(C(=O)C2(O)CC2)CC1 [1-[(4-{[4-(quinolin-6-yl)-2-(trifluoromethyl)phenyl]carbonyl}piperazin-1-yl)carbonyl]cyclopropan-1-ol]
34 | 500 to 5000 | O=C(c1ccc(-c2nccc3occc23)cc1)N1CCN(C(=O)C2(O)CC2)CC1 [1-({4-[(4-{furo[3,2-c]pyridin-4-yl}phenyl)carbonyl]piperazin-1-yl}carbonyl)cyclopropan-1-ol]
35 | 500 to 5000 | O=C(c1ncc(-c2ccc(Cl)cc2F)cn1)N1CCN(C(=O)C2(O)CC2)CC1 [1-[(4-{[5-(4-chloro-2-fluorophenyl)pyrimidin-2-yl]carbonyl}piperazin-1-yl)carbonyl]cyclopropan-1-ol]
36 | 500 to 5000 | CC(C)n1ncc2cc(-c3ccc(C(=O)N4CCN(C(=O)C5(O)CC5)CC4)cc3)ccc21 [1-{[4-({4-[1-(propan-2-yl)-1H-indazol-5-yl]phenyl}carbonyl)piperazin-1-yl]carbonyl}cyclopropan-1-ol]
37 | 500 to 5000 | O=C(c1ccc2nc(-c3ccc(F)cc3)sc2c1)N1CCN(C(=O)C2(O)CC2)CC1 [1-[(4-{[2-(4-fluorophenyl)-1,3-benzothiazol-6-yl]carbonyl}piperazin-1-yl)carbonyl]cyclopropan-1-ol]
38 | 500 to 5000 | COc1cc(-c2cnc3ccccc3c2)ccc1C(=O)N1CCN(C(=O)C2(O)CC2)CC1 [1-[(4-{[2-methoxy-4-(quinolin-3-yl)phenyl]carbonyl}piperazin-1-yl)carbonyl]cyclopropan-1-ol]
39 | 500 to 5000 | COc1ccc2[nH]c(-c3ccc(C(=O)N4CCN(C(=O)C5(O)CC5)CC4)cc3)nc2c1 [1-[(4-{[4-(5-methoxy-1H-1,3-benzodiazol-2-yl)phenyl]carbonyl}piperazin-1-yl)carbonyl]cyclopropan-1-ol]

same assay, conditions: FASN enzymatic assay; Table 2-3

Row | IC50 [nM] | SMILES
40 | ≥ 5000 | CC(O)(C(=O)N1CCN(C(=O)c2ccc(-c3ccccc3)cc2)CC1)C(F)(F)F (stereo not drawn) [3,3,3-trifluoro-2-hydroxy-2-methyl-1-{4-[(4-phenylphenyl)carbonyl]piperazin-1-yl}propan-1-one]
41 | ≥ 5000 | O=C(c1ccc(-c2cn3cc(F)ccc3n2)cc1)N1CCN(C(=O)C2(O)CC2)CC1 [1-({4-[(4-{6-fluoroimidazo[1,2-a]pyridin-2-yl}phenyl)carbonyl]piperazin-1-yl}carbonyl)cyclopropan-1-ol]
42 | ≥ 5000 | Cc1ccc(-c2ccc(C(=O)N3CCN(C(=O)C4(O)CC4)CC3)cc2)cn1 [1-[(4-{[4-(6-methylpyridin-3-yl)phenyl]carbonyl}piperazin-1-yl)carbonyl]cyclopropan-1-ol]
